“And” between values parts separate entries of the source, which are not always exact repeats. Equal entries are not always repeated. Where two headings read alike, the source gives them in different places.

A short description of series [1]: Case report rheumatoid arthritis. The series is classed as in vivo, human. The note with it: person, 10 mg prednisone retard tablets once daily. An excerpt: A person was diagnosed with rheumatoid arthritis a few months after experiencing first symptoms.
The conditions of series [2]: Schumann et al. 2020; cited from earlier work.
The test system of series [3] is IL-6 production, LPS stimulated RAW264.7 cells. Briefly: IL-6 levels (ELISA) in supernatants of LPS stimulated RAW264.7 cells. The series is classed as cell-based, mouse. As for the experimental part:
Raw264.7 cells (leukemia transformed monocytic-macrophage cell line derived from mouse ascitic fluid) were grown in Dulbecco's Modified Eagle's Medium enriched with glutamine and fetal calf serum and maintained at 37° C. and 5% CO2.
Two experimental parts were performed.
On the technique in general: In an ELISA, binding on a coated surface is turned into a signal by an enzyme label.

Series [4] in a line: Body weight in pilot study of collagen induced arthritis (CIA) in mice. Conditions: MP1032 1 mg/kg/day alone, intraperitoneally.

Turning to `C[C@]12C=CC(=O)C=C1CC[C@@H]1[C@@H]2C(=O)C[C@@]2(C)[C@H]1CC[C@]2(O)C(=O)CO` [prednisone], the pain and inflammation entry in series [1] (rheumatoid arthritis, within months) is given as “improved”. For the same compound, the body weight result in series [1] is reported as “started to gain weight”.

In the case of `Nc1cccc2c(=O)[nH][nH]c(=O)c12`, in series [2], the tolerability entry was “well tolerated”.

For the compound `Nc1cccc2c(=O)[nH][nH]c(=O)c12.[Na]`, the “Percentage inhibition of IL-6 production” value in series [3] (Exp Part 1, MP1032 0.025 mM alone, sodium salt) is 17% and 17.03%; in series [3] (Exp Part 1, MP1032 0.05 mM alone, sodium salt), 25.8% and 25.77%; in series [3] (Exp Part 1, MP1032 0.1 mM alone), 44.85%; in series [3] (Exp Part 1, MP1032 0.25 mM alone) it was 53.95%; in series [3] (Exp Part 1, MP1032 0.5 mM alone), 56.70%; in series [3] (Exp Part 1, MP1032 1 mM alone), 72.75%. The “Percentage inhibition of IL-6 production” value in series [3] (Exp Part 2, MP1032 0.025 mM alone) was 1.57%; in series [3] (Exp Part 2, MP1032 0.05 mM alone), 0%; in series [3] (Exp Part 2, MP1032 0.1 mM alone), 0%; in series [3] (Exp Part 2, MP1032 0.25 mM alone) it was 13.85%; in series [3] (Exp Part 2, MP1032 0.5 mM alone) it was 47.52%; in series [3] (Exp Part 2, MP1032 1 mM alone) it was 67.30%. In series [4], the “Body weight on day 45, median” value was “(23.6, n = 11) g”.

`C[C@@H]1C[C@H]2[C@@H]3CCC4=CC(=O)C=C[C@]4(C)[C@@]3(F)[C@@H](O)C[C@]2(C)[C@@]1(O)C(=O)CO` [Dexamethasone, dexamethasone, reference compound]: the “Percentage inhibition of IL-6 production” value in series [3] (Exp Part 1, dexamethasone 0.01 μM alone) was determined as 34.66%. In addition, the inhibition – broadly, the share of the control response that was lost under treatment – at 0.01 µM in series [3] (Mus musculus, RAW264.7, Exp Part 1, dexamethasone 0.01 μM alone, read-out: Percentage inhibition of IL-6 production) came to 34.7%; in series [3] (Mus musculus, RAW264.7, Exp Part 2, dexamethasone 0.01 μM alone, read-out: Percentage inhibition of IL-6 production), 36.3%. Also, the inhibition at 0.1 µM in series [3] (Mus musculus, RAW264.7, Exp Part 1, dexamethasone 0.1 μM alone, read-out: Percentage inhibition of IL-6 production) turned out to be 63.8%. In addition, the inhibition at 1 µM in series [3] (Mus musculus, RAW264.7, Exp Part 1, dexamethasone 1 μM alone, read-out: Percentage inhibition of IL-6 production) was 87%. Moreover, in series [3] (Mus musculus, RAW264.7, Exp Part 2, dexamethasone 0.0003 μM alone, read-out: Percentage inhibition of IL-6 production), the inhibition at 0.0003 µM was found to be 1.57%. Moreover, the inhibition at 0.0006 µM in series [3] (Mus musculus, RAW264.7, Exp Part 2, dexamethasone 0.0006 μM alone, read-out: Percentage inhibition of IL-6 production) amounted to 4.07%. For the same compound, the inhibition at 0.0012 µM in series [3] (Mus musculus, RAW264.7, Exp Part 2, dexamethasone 0.0012 μM alone, read-out: Percentage inhibition of IL-6 production) is 0%. Also, in series [3] (Mus musculus, RAW264.7, Exp Part 2, dexamethasone 0.0025 μM alone, read-out: Percentage inhibition of IL-6 production), the inhibition at 0.0025 µM came to 4.16%. In addition, the inhibition at 0.005 µM in series [3] (Mus musculus, RAW264.7, Exp Part 2, dexamethasone 0.005 μM alone, read-out: Percentage inhibition of IL-6 production) was 30.6%.

These data come from patent US20230241060A1, “GLUCOCORTICOID-SPARING AGENT” (METRIOPHARM AG, priority 2020, published 2023).
